Laboratory results from patent US7371777B2, “Cyclic compound and PPAR agonist” (Eisai Co., Ltd., priority 2001, dated 2008).

Experiments:
Assay in all cases: Determination of transcriptional activity (GAL4-PPAR LBD chimera, PLAP reporter, CV-1 cells)
Format in all cases: cell-based
PPARα = target: T1, PPARα (Homo sapiens, UniProt Q07869); conditions: GAL4-human PPARα LBD (167-468) chimera, PLAP activity 24 hours after addition of compound
T1 construct: human PPAR167-468 (PPARa); expressed in transfected cells; host or cells: CV-1 (ATCC CCL-70)
T1 sequence (Q07869 167-468): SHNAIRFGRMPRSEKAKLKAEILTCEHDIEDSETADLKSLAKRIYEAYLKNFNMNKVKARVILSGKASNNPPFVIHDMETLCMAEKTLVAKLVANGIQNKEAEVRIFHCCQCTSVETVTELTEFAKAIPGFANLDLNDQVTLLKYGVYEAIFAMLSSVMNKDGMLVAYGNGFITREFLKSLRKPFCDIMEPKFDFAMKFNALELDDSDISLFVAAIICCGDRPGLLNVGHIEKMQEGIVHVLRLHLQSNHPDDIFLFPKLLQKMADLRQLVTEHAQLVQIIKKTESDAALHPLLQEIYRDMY
Description: (§1) Determination of Transcriptional Activity
(§2) (1) Test Method: A GAL4-PPAR LBD chimera expression vector was constructed by ligating human PPAR167-468 (PPARa), 138-440 (NUC-1) and 174-475 (PPARg) amino acid regions (LBD: Ligand Binding Domain) to a yeast transcriptional factor GAL4 1-147 amino acid region. As the reporter gene, PLAP (Placental Alkaline Phosphatase) was used, and this was ligated downstream of a TK promoter containing a 5-copy GAL4 DNA binding element to construct a vector. As host cells, CV-1 (ATCC CCL-70) were used. That is, CV-1 cells were spread at a density of 5×10^5 cells on a 35-mm dish and cultured in 10% FCS/DMEM for 24 hours, and using FuGENE 6 transfection reagent, the cells were co-transfected with the GAL4-PPAR LBD expression vector and GAL4 DBD-TK-PLAP expression vector. Twentyfour hours after this transfection, the cells were spread again on a 96-well plate at a density of 1×10^4/well and further cultured for 24 hours. After 24 hours, the medium was exchanged with DMEM containing 10% FCS, which was previously treated at 65° C. for inactivating intrinsic alkaline phosphatase, and a test compound was added at an arbitrary concentration. The transcriptional activity was determined in terms of PLAP activity secreted 24 hours after addition of the compound, to calculate EC50. The PLAP activity was determined after adding […] and incubating the mixture at room temperature for 1 hour.

PPARβ = target: T2, PPARβ (Homo sapiens, UniProt Q03181); conditions: GAL4-human NUC-1 LBD (138-440) chimera, PLAP activity 24 hours after addition of compound
T2 construct: 138-440 (NUC-1); expressed in transfected cells; host or cells: CV-1 (ATCC CCL-70)
T2 sequence (Q03181 138-440): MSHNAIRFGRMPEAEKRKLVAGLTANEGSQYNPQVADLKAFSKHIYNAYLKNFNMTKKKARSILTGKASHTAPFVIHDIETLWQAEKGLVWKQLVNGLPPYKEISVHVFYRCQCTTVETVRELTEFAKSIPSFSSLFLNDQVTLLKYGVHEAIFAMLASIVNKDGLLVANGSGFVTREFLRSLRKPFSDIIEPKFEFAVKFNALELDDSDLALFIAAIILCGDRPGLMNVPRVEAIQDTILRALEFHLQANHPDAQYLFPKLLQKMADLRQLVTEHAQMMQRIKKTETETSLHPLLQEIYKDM
Description: as §1, §2

PPARγ = target: T3, PPARγ (Homo sapiens, UniProt P37231); conditions: GAL4-human PPARγ LBD (174-475) chimera, PLAP activity 24 hours after addition of compound
T3 construct: 174-475 (PPARg); expressed in transfected cells; host or cells: CV-1 (ATCC CCL-70)
T3 sequence (P37231 204-505): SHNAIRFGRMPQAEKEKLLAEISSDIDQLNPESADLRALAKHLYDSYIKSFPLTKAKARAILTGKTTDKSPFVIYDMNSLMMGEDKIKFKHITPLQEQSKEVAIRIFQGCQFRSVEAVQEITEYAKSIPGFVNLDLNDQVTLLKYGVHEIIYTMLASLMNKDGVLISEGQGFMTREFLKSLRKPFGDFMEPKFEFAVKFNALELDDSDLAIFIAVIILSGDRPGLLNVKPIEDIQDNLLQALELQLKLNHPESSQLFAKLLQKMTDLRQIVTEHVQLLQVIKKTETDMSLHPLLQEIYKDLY
Description: as §1, §2

CCCOc1ccc(C(=O)NCc2cc(CC3(C(=O)O)CCCO3)ccc2OC)c(Cl)c1 (stereo not drawn) [Ex. 1, 2-(3-{[(2-Chloro-4-propoxybenzoyl)amino]methyl}-4-methoxybenzyl)tetrahydro-2-furancarboxylic acid]
EC50 (PPARα): 0.028 µM | EC50 (PPARβ): 0.533 µM | EC50 (PPARγ): 0.056 µM

COc1ccc(CC2(C(=O)O)CCCO2)cc1CNC(=O)c1ccc(OC2CCCC2)cc1Cl (stereo not drawn) [Ex. 5, 2-(3-{[(2-Chloro-4-cyclopentyloxybenzoyl)amino]methyl}-4-methoxybenzyl)tetrahydro-2-furancarboxylic acid]
EC50 (PPARα): 0.015 µM | EC50 (PPARβ): 1.32 µM | EC50 (PPARγ): 0.04 µM

COc1ccc(CC2(C(=O)O)CCCO2)cc1CNC(=O)c1ccc(C2CCCCC2)cc1Cl (stereo not drawn) [Ex. 6, 2-(3-{[(2-Chloro-4-cyclohexylbenzoyl)amino]methyl}-4-methoxybenzyl)tetrahydro-2-furancarboxylic acid]
EC50 (PPARα): 0.011 µM | EC50 (PPARβ): 1.21 µM | EC50 (PPARγ): 0.078 µM

CCCOc1ccc(C(=O)NCc2cc(CC3(C(=O)O)C=CCO3)ccc2OC)c(Cl)c1 (stereo not drawn) [Ex. 49, 2-(3-{[(2-Chloro-4-propoxybenzoyl)amino]methyl}-4-methoxybenzyl)-2,5-dihydro-2-furancarboxylic acid]
EC50 (PPARα): 0.054 µM | EC50 (PPARβ): 0.771 µM | EC50 (PPARγ): 0.037 µM

CCOc1ccc(C(=O)NCc2cc(CC3(C(=O)O)CCCO3)ccc2OCC)c(Cl)c1 (stereo not drawn) [Ex. 72, 2-(3-{[(2-Chloro-4-ethoxybenzoyl)amino]methyl}-4-ethoxybenzyl)tetrahydro-2-furancarboxylic acid]
EC50 (PPARα): 0.092 µM | EC50 (PPARβ): 0.234 µM | EC50 (PPARγ): 0.04 µM

CCCOc1ccc(C(=O)NCc2cc(CC3(C(=O)O)CCCO3)ccc2OCC)c(Cl)c1 (stereo not drawn) [Ex. 73, 2-(3-{[(2-Chloro-4-propoxybenzoyl)amino]methyl}-4-ethoxybenzyl)tetrahydro-2-furancarboxylic acid]
EC50 (PPARα): 0.013 µM | EC50 (PPARβ): 0.038 µM | EC50 (PPARγ): 0.005 µM
